Tested on: 598228-144-R-J1-PDC complex spheroid viability
Assay: Anticancer human tumor 598228-144-R-J1-PDC patient-derived serous endometrial adenocarcinoma cell line growth inhibition [GQUAD]
Conditions: for IC50: curve of first compound; for viability, T/C: stronger effect = lower value
Procedure, shortened: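 Tumor cells were grown as complex spheroids with HUVEC endothelial cells and mesenchymal stem cells as stroma. G-quadruplex stabilizers were combined with targeted agents over half-log dilutions from near the clinical Cmax, or from 10 microM.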
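Further: spheroids exposed to the agents for one week before reading.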
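Wherever viability, T/C is given: percent of vehicle DMSO control viability so 100% = untreated growth.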

With `Cn1ncnc1[C@H]1c2n[nH]c(=O)c3cc(F)cc(c23)N[C@@H]1c1ccc(F)cc1` + Cc1[nH]c2ccc(F)cc2c1-c1nc2c3cccnc3c3ncccc3c2[nH]1 the IC50 (second compound 0.0316 µM) was over 316 nM, the IC50 (second compound 0.1 µM) was over 316 nM and the IC50 (second compound 0.316 µM) was over 316 nM. It also gave an IC50 (second compound 1 µM) of over 316 nM, an IC50 (second compound 3.16 µM) of under 0.999 nM and an IC50 (second compound 10 µM) of over 316 nM. It also gave a viability, T/C (second compound 0.0316 µM, first compound 0.000999 µM) of 125%, a viability, T/C (second compound 0.0316 µM, first compound 0.00316 µM) of 86.2% and a viability, T/C (second compound 0.0316 µM, first compound 0.00999 µM) of 106%. The viability, T/C (second compound 0.0316 µM, first compound 0.0316 µM) was 71.6%, the viability, T/C (second compound 0.0316 µM, first compound 0.0999 µM) was 80.8% and the viability, T/C (second compound 0.0316 µM, first compound 0.316 µM) was 83.3%. For the same compound, the viability, T/C (second compound 0.1 µM, first compound 0.000999 µM) was 103%, the viability, T/C (second compound 0.1 µM, first compound 0.00316 µM) was 99% and the viability, T/C (second compound 0.1 µM, first compound 0.00999 µM) was 78.8%. For the same compound, the viability, T/C (second compound 0.1 µM, first compound 0.0316 µM) was 70.6%, the viability, T/C (second compound 0.1 µM, first compound 0.0999 µM) was 93.8% and the viability, T/C (second compound 0.1 µM, first compound 0.316 µM) was 73.3%. For the same compound, the viability, T/C (second compound 0.316 µM, first compound 0.000999 µM) was 78.6%, the viability, T/C (second compound 0.316 µM, first compound 0.00316 µM) was 79.3% and the viability, T/C (second compound 0.316 µM, first compound 0.00999 µM) was 76.6%. The viability, T/C (second compound 0.316 µM, first compound 0.0316 µM) was 72%, the viability, T/C (second compound 0.316 µM, first compound 0.0999 µM) was 69.7% and the viability, T/C (second compound 0.316 µM, first compound 0.316 µM) was 60.4%. For the same compound, the viability, T/C (second compound 1 µM, first compound 0.000999 µM) was 63.9%, the viability, T/C (second compound 1 µM, first compound 0.00316 µM) was 59.2% and the viability, T/C (second compound 1 µM, first compound 0.00999 µM) was 66.2%. It also gave a viability, T/C (second compound 1 µM, first compound 0.0316 µM) of 56.7%, a viability, T/C (second compound 1 µM, first compound 0.0999 µM) of 50.9% and a viability, T/C (second compound 1 µM, first compound 0.316 µM) of 57.7%. It also gave a viability, T/C (second compound 3.16 µM, first compound 0.000999 µM) of 33.1%, a viability, T/C (second compound 3.16 µM, first compound 0.00316 µM) of 43.8% and a viability, T/C (second compound 3.16 µM, first compound 0.00999 µM) of 51.1%. For the same compound, the viability, T/C (second compound 3.16 µM, first compound 0.0316 µM) was 37.9%, the viability, T/C (second compound 3.16 µM, first compound 0.0999 µM) was 39.6% and the viability, T/C (second compound 3.16 µM, first compound 0.316 µM) was 40.3%. The viability, T/C (second compound 10 µM, first compound 0.000999 µM) was 64.3%, the viability, T/C (second compound 10 µM, first compound 0.00316 µM) was 58.9% and the viability, T/C (second compound 10 µM, first compound 0.00999 µM) was 64.6%. It also gave a viability, T/C (second compound 10 µM, first compound 0.0316 µM) of 53%, a viability, T/C (second compound 10 µM, first compound 0.0999 µM) of 55.6% and a viability, T/C (second compound 10 µM, first compound 0.316 µM) of 51.8%.
